The record followed here is ChEMBL document CHEMBL5233283, “Indole derivatives as tubulin polymerization inhibitors for the development of promising anticancer agents” (Bioorg Med Chem, 2021).

One experiment has as its system KB. Kind of experiment: Cytotoxicity against human KB cells assessed as cell growth inhibition. Type of experiment: functional, cell-based.
Another experiment concerns MKN-45. Kind of experiment: Cytotoxicity against human MKN-45 cells assessed as cell growth inhibition. The experiment is classed as functional, cell-based.
Another experiment relates to HT-29. Kind of experiment: Cytotoxicity against human HT-29 cells assessed as inhibition of cell growth. Type of experiment: functional, cell-based.
For the next experiment, the system named is NCI-H460. Kind of experiment: Cytotoxicity against human NCI-H460 cells assessed as cell growth inhibition. Type of experiment: functional, cell-based.
A further experiment concerns MDA-MB-231. The experiment in a line: Cytotoxicity against human MDA-MB-231 cells assessed as inhibition of cell growth. Type of experiment: functional, cell-based.
The next experiment concerns MCF7. Kind of experiment: Cytotoxicity against human MCF7 cells assessed as inhibition of cell growth. Type of experiment: functional, cell-based.
The subject of another experiment is A549. The experiment in a line: cells. The note with it: Homo sapiens.
The test system of another experiment is HeLa. Kind of experiment: Cytotoxicity against human HeLa cells assessed as inhibition of cell growth. The experiment is classed as functional, cell-based.
Another experiment deals with HepG2. The experiment in a line: Cytotoxicity against human HepG2 cells assessed as inhibition of cell growth. Type of experiment: functional, cell-based.
Experiment [1] can be described thus: Cytotoxicity against human […] cells assessed as inhibition of cell growth. The experiment is classed as functional, cell-based.
The test system of a further experiment is HCT-116. Kind of experiment: Cytotoxicity against human HCT-116 cells assessed as inhibition of cell growth. The experiment is classed as functional, cell-based.
The subject of a further experiment is Ishikawa. Kind of experiment: Cytotoxicity against human Ishikawa cells assessed as inhibition of cell growth. The experiment is classed as functional, cell-based.
Experiment [2] is described as follows: Cytotoxicity against human CL1-5 cells assessed as inhibition of cell growth. The experiment is classed as functional, cell-based.
For another experiment, the system named is NCI/ADR-RES. The experiment in a line: Cytotoxicity against human NCI-ADR-RES cells assessed as inhibition of cell growth. Type of experiment: functional, cell-based.
In a further experiment the test system is AGS. The experiment in a line: Cytotoxicity against human AGS cells assessed as inhibition of cell growth. Type of experiment: functional, cell-based.
For the next experiment, the system named is PC-3. The experiment in a line: Cytotoxicity against human PC-3 cells assessed as inhibition of cell growth. The experiment is classed as functional, cell-based.
A short description of experiment [3]: Cytotoxicity against human Neural progenitor cells assessed as cell growth inhibition. Type of experiment: functional, cell-based.
A further experiment concerns SH-SY5Y. Kind of experiment: Cytotoxicity against human SH-SY5Y cells assessed as cell growth inhibition. Type of experiment: functional, cell-based.
Experiment [4] can be described thus: Cytotoxicity against human SCC-29B cells assessed as inhibition of cell growth. The experiment is classed as functional.
A further experiment has as its system B16-F10. Kind of experiment: Cytotoxicity against mouse B16-F10 cells assessed as cell growth inhibition. Type of experiment: functional, cell-based.
The next experiment deals with PA-1. The experiment in a line: Cytotoxicity against human PA-1 cells assessed as inhibition of cell growth. Type of experiment: functional, cell-based.
In another experiment the test system is RKO. Kind of experiment: Cytotoxicity against human RKO cells assessed as inhibition of cell growth. The experiment is classed as functional, cell-based.

Description for A549: Cytotoxicity against human A549 cells assessed as inhibition of cell growth

With `COc1ccc(-n2ccc3cc(OC)c(OC)c(OC)c32)cc1O`, the IC50 with KB stood at 13.7 nM; in the experiment on MKN-45 it was 11.1 nM; with HT-29 it was 10.2 nM; with NCI-H460 it was 12.9 nM.
Regarding `O=C1Nc2cc(Cl)ccc2/C1=C\c1c(-c2ccc(F)cc2)nc2ccccn12`, the figures for the GI50 in the experiment with MDA-MB-231 and in the experiment with MCF7 were 950 nM and 430 nM, respectively.
As to `N#Cc1c(-c2ccc(F)cc2Cl)cc(-c2c[nH]c3ccccc23)n2ccnc12`, the IC50 was found to be 570 nM with A549, 140 nM in the experiment on MKN-45, 20 nM with HT-29 and 50 nM in the experiment with NCI-H460.
Turning to `O=C(N/N=C/c1ccc(C(F)(F)F)cc1)c1[nH]c2ccc(Cl)cc2c1-c1ccccc1`, in the experiment on MCF7, the IC50 came out at 420 nM.
For the compound `COc1cc(C2=CN(C(N)=O)C(c3cn(C)c4ccc(Br)cc34)C2)cc(OC)c1OC` (stereo unspecified), the IC50 in the experiment with HeLa worked out at 210 nM; in the experiment on MCF7 it was 290 nM; in the experiment with A549 it was 260 nM; in the experiment on HepG2, 310 nM.
Take `COc1cc(/C=N/NC(=O)c2cn(Cc3ccccc3)c3ccccc23)cc(OC)c1OC`: the IC50 is 35600 nM in experiment [1], 640 nM with MCF7, 80 nM with A549 and 630 nM with HepG2.
Take `COc1cc(/C=C/c2ncc([N+](=O)[O-])n2CCOC(=O)c2c[nH]c3ccccc23)cc(OC)c1OC`: the IC50 in the experiment on MCF7 turned out to be 30 nM; in the experiment on A549 it was 35 nM; in the experiment on HepG2, 40 nM.
`Oc1cccc(-n2cc(CSc3c[nH]c4ccccc34)nn2)c1`: the IC50 in the experiment on MCF7 was 2370 nM.
For `COc1ccc(C(=O)/C=C/c2ccc3c(ccn3C)c2)c2ccccc12`, the figures for the IC50 with MCF7, with HCT-116 and in the experiment with HepG2 were 820 nM, 1130 nM and 650 nM, respectively.
As to `COC(=O)c1[nH]c2cc(OC)ccc2c1/C=C/C(=O)c1cc(OC)c(OC)c(OC)c1`, the IC50 in the experiment with HeLa stood at 370 nM; in the experiment on MCF7, 170 nM; in the experiment with HT-29, 160 nM.
On to `COC(=O)c1c(Nc2cc(OC)c(OC)c(OC)c2)c2ccc(OC)cc2n1C`, for which the IC50 in the experiment with HeLa, in the experiment on MCF7 and in the experiment with HT-29 was 110 nM in each case.
In the case of `O=C(CC#Cc1ccccc1)Oc1ccc2[nH]ccc2c1`, the IC50 in the experiment with MDA-MB-231 is 9900 nM; in the experiment with HeLa, 3200 nM; in the experiment with MCF7 it was 3800 nM; in the experiment with Ishikawa, 10100 nM.
On to `COc1ccc(S(=O)(=O)Nc2cccc3cc(-c4ccccc4)[nH]c23)cc1`, for which the IC50 was 200 nM in the experiment with HeLa; 450 nM in experiment [2]; 150 nM in the experiment on NCI/ADR-RES; 250 nM in the experiment with AGS; 110 nM in the experiment on PC-3; 1430 nM in the experiment on A549. Also, the IC50 in the experiment with HT-29 came to 130 nM.
Take `COC(=O)c1[nH]c2ccc(OC)cc2c1Nc1cc(OC)c(OC)c(OC)c1`: the IC50 in the experiment on HeLa, in the experiment with MCF7 and in the experiment on HT-29 was 110 nM throughout.
For the compound `CC(=O)c1ccc(C2=C(c3c(C)[nH]c4ccccc34)C(=O)N(C)C2=O)cc1`, the concentration for half-maximal inhibition (IC50) in experiment [3] was determined as 1310 nM; in the experiment with SH-SY5Y it was 8480 nM; with A549 it was 4970 nM.
With `O=C(O)c1cccc(-n2cc(CSc3c[nH]c4ccccc34)nn2)c1`, the IC50 in the experiment on MCF7 came out at 3520 nM.
On to `COc1ccc(C(=O)/C=C/c2cn(C)c3ccc(C(=O)c4cc(OC)c(OC)c(OC)c4)cc23)cc1OC`, for which the GI50 in [4] came out at 960 nM.
As to `O=C(CC(c1ccc(F)cc1)c1c(-c2ccccc2)[nH]c2ccccc12)c1ccccc1` (stereo unspecified), the IC50 in the experiment on B16-F10 and with MCF7 was 10000 nM each time.
For the compound `N#Cc1ccc(/C=N/NC(=O)c2[nH]c3ccc(Cl)cc3c2-c2ccccc2)cc1`, in the experiment with MCF7, the IC50 was determined as 170 nM.
As to `COc1cc(CSc2nnc(-c3cn(C)c4ccccc34)n2-c2ccccc2)cc(OC)c1OC`, the IC50 with HeLa turned out to be 150 nM; with MCF7, 380 nM; in the experiment with A549, 300 nM; in the experiment with HepG2, 300 nM.
For the compound `O=C(N/N=C/c1c[nH]c2ccccc12)c1c[nH]c2ccccc12`, the IC50 in the experiment on MDA-MB-231 was found to be 8000 nM; in the experiment on HeLa, 1500 nM; in the experiment on MCF7, 5250 nM; with HepG2 it was 29700 nM; with PA-1 it was 24700 nM.
For the compound `O=C(CC(c1ccccc1)c1c(-c2ccccc2)[nH]c2ccccc12)c1ccc(F)cc1` (stereo unspecified), the IC50 in the experiment on B16-F10 and with MCF7 was 10000 nM in each case.
Consider `COc1cc(C(=O)c2cccc3[nH]ccc23)cc([Se]C)c1OC`, for which the IC50 in the experiment on RKO, in the experiment with MDA-MB-231, with HeLa, in the experiment on A549, in the experiment on HCT-116 and in the experiment with HepG2 was 4 nM throughout.
